# Data reported in ChEMBL document CHEMBL1146311, “Carbonic anhydrase activators: L-Adrenaline plugs the active site entrance of isozyme II, activating better isoforms I, IV, VA, VII, and XIV” (Bioorg Med Chem Lett, 2007).
# What was measured:
# [1] = molecular target: Carbonic anhydrase 5A, mitochondrial (Homo sapiens) (UniProt P35218)
# Description: Activation of human recombinant CA5A by CO2 hydration method
# [2] = molecular target: Carbonic anhydrase 7 (Homo sapiens) (UniProt P43166)
# Description: Activation of human recombinant CA7 by CO2 hydration method
# [3] = molecular target: Carbonic anhydrase 14 (Homo sapiens) (UniProt Q9ULX7)
# Description: Activation of human recombinant CA14 by CO2 hydration method
# [4] = molecular target: Carbonic anhydrase 2 (Homo sapiens) (UniProt P00918)
# Description: Activation of human recombinant CA2 by CO2 hydration method
# [5] = molecular target: Carbonic anhydrase 1 (Homo sapiens) (UniProt P00915)
# Description: Activation of human recombinant CA1 by CO2 hydration method
# [6] = molecular target: Carbonic anhydrase 4 (Homo sapiens) (UniProt P22748)
# Description: Activation of human recombinant CA4 by CO2 hydration method
# NCCc1c[nH]cn1 [7] = conditions: Homo sapiens; 10 uM
# Description: (§1) Activity of human recombinant CA1 at 10 uM by stopped-flow technique
# [8] = test system: CNC[C@H](O)c1ccc(O)c(O)c1; conditions: Homo sapiens; 10 uM
# Description: as §1
# NCCc1c[nH]cn1 [9] = conditions: Homo sapiens; 10 uM; remark: listed apart in the source
# Description: (§2) Activity of human recombinant CA2 at 10 uM by stopped-flow technique
# [10] = test system: CNC[C@H](O)c1ccc(O)c(O)c1; conditions: Homo sapiens; 10 uM; remark: listed apart in the source
# Description: as §2
# Chain of Carbonic anhydrase 1 (Homo sapiens), P00915 (P00915 whole entry): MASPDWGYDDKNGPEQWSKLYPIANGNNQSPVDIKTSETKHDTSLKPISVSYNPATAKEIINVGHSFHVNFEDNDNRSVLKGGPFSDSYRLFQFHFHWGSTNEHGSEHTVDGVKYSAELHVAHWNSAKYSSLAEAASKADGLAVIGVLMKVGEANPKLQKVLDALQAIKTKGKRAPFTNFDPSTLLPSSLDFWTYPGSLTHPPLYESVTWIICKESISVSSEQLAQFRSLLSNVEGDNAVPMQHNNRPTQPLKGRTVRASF
# Chain of Carbonic anhydrase 4 (Homo sapiens) (P22748 whole entry): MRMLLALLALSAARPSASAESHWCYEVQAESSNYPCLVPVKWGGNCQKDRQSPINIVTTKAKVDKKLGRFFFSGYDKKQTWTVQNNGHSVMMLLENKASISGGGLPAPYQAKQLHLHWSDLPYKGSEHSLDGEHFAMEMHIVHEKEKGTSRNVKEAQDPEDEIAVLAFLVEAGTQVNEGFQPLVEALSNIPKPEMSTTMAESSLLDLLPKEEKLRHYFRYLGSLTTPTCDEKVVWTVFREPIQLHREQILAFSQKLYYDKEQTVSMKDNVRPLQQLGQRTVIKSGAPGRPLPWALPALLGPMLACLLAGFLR
# Chain of Carbonic anhydrase 5A, mitochondrial (Homo sapiens) (P35218 whole entry): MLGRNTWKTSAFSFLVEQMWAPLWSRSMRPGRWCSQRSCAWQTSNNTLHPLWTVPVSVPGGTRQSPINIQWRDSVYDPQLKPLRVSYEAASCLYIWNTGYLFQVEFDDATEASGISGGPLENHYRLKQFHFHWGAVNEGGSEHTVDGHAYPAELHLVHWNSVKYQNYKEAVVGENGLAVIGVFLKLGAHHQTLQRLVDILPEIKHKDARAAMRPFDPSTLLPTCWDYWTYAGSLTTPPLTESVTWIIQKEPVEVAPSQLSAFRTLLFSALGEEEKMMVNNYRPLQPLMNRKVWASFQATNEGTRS
# Chain of Carbonic anhydrase 7 (Homo sapiens) (P43166 whole entry): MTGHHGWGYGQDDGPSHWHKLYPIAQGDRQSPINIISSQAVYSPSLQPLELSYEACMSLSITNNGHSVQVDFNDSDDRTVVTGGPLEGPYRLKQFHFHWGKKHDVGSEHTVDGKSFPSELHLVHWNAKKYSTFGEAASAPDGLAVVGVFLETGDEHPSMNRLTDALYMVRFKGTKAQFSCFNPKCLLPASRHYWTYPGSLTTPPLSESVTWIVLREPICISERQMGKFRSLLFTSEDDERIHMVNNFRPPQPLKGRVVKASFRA
# Chain of Carbonic anhydrase 14 (Homo sapiens) (Q9ULX7 whole entry): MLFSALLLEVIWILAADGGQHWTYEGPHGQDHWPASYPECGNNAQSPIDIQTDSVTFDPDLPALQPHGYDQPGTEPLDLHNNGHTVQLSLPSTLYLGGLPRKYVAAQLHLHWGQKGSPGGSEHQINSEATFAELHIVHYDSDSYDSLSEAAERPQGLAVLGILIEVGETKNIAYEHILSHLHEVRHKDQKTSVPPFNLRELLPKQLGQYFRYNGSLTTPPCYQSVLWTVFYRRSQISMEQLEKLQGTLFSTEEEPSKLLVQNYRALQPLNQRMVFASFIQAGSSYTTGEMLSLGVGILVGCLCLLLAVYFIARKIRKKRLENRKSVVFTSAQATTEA
# Chain of Carbonic anhydrase 1 (Homo sapiens) (P00915 2-261 limits assumed): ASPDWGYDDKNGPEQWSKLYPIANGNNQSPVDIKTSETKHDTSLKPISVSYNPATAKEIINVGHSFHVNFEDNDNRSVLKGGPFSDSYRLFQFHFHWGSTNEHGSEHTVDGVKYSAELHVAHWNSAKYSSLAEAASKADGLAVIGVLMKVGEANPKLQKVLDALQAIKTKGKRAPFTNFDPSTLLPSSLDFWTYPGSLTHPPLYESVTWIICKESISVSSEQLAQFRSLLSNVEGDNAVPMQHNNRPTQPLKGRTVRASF
Molecule,Ka [1] [µM],Ka [2] [µM],Ka [3] [µM],Ka [4] [µM],Ka [5] [µM],Ka [6] [µM],kcat (NCCc1c[nH]cn1 [7]),kcat [8],kcat (NCCc1c[nH]cn1 [9]),kcat [10]
CNC[C@H](O)c1ccc(O)c(O)c1,63,60,36,96,0.09,45,–,–,–,–
"Carbonic anhydrase 1 (Homo sapiens), P00915",–,–,–,–,–,–,12.7 10^5/s,10.4 10^5/s,–,–
Carbonic anhydrase 2 (Homo sapiens) (from UniProt P00918),–,–,–,–,–,–,–,–,2 10^6/s,1.7 10^6/s
NCCc1c[nH]cn1,2.5,1.3,1.9,74,0.05,31,–,–,–,–
